Test results as given in article doi:10.1101/2025.10.30.685675v2 (biorxiv, 2026).

Molecular target: T1, HsDLH (Homo sapiens, UniProt Q96DG6)
T1 construct: gene CMBL; N-terminal His6-Twin-Strep-SUMO tag kept, E. coli BL21(DE3), Ni-NTA
T1 sequence (Q96DG6 1-245): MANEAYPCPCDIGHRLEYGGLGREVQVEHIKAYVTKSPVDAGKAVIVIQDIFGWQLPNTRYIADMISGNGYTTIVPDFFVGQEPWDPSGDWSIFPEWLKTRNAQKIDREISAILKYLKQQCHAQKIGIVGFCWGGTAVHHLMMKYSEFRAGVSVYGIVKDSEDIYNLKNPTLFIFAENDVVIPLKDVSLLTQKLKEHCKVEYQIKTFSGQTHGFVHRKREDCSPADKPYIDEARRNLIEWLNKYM
Format: biochemical

Q: How did the KM turn out when `CCOP(=O)(OCC)Oc1ccc2c(c1)Oc1cc(OP(=O)(OCC)OCC)ccc1C21OC(=O)c2ccccc21` [FDDEP] was run?
A: The KM was “displays very weak activity towards the fluorogenic phosphotriester FDDEP”.
